# Measurements taken from the supplement of paper PMC10331698.
# ± gives the standard deviation of the averaged measurements.
# Key:
# [1] = compound: O=C(O)C(F)(F)C(F)(F)C(F)(F)C(F)(F)C(F)(F)C(F)(F)C(F)(F)C(F)(F)C(F)(F)C(F)(F)C(F)(F)C(F)(F)F [Perfluorotridecanoic acid]; assay: level (log10 ratio to DMSO vehicle control); higher = higher biomarker level / cell amount than vehicle control; details: in DMSO
# Method: (§1)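 BioMAP Diversity Plus panel of 12 human primary cell co-culture systems (3C, 4H, LPS, SAg, BT, BF4T, BE3C, CASM3C, HDF3CGF, KF3CT, MyoF, Mphg). Compounds were added 1 h before stimulation and left for 24 h (MyoF 48 h; BT 72 h for soluble read-outs or 6 d for IgG). Biomarkers were read by ELISA, cytotoxicity by SRB, PBMC viability and proliferation by Alamar Blue. Each well value was divided by the mean of 8 DMSO control wells on the same plate and log10 transformed; duplicate blinded samples were tested at 4 concentrations.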
# [2] = compound: CNS(=O)(=O)C(F)(F)C(F)(F)C(F)(F)C(F)(F)C(F)(F)C(F)(F)C(F)(F)C(F)(F)F [N-Methylperfluorooctanesulfonamide]; assay: as above; details: in DMSO
# Method: as §1
Test System,level (log10) ([1]; 1500 nM),level (log10) ([1]; 4400 nM),level (log10) ([1]; 13000 nM),level (log10) ([1]; 40000 nM),level (log10) ([2]; 6700 nM),level (log10) ([2]; 20000 nM),level (log10) ([2]; 60000 nM)
3C:CCL2/MCP-1,0.0135 ± 0.0078,-0.021 ± 0.0014,-0.001 ± 0.0085,0.0035 ± 0.0035,0.0175 ± 0.0021,0.0235 ± 0.028,0.031 ± 0.034
3C:CD54/ICAM-1,0.001 ± 0.016,-0.0125 ± 0.019,-0.0155 ± 0.025,-0.0105 ± 0.0078,-0.0265 ± 0.022,0.103 ± 0.026,0.043 ± 0.0014
3C:CD62E/E-Selectin,-0.0015 ± 0.019,-0.0045 ± 0.0064,-0.0005 ± 0.011,-0.01 ± 0.018,-0.011 ± 0.025,0.01 ± 0.023,-0.072 ± 0.011
3C:CD106/VCAM-1,0.0125 ± 0.012,-0.0055 ± 0.016,-0.0185 ± 0.019,-0.0165 ± 0.018,-0.03 ± 0.038,0.049 ± 0.024,-0.0295 ± 0.012
3C:CD141/Thrombomodulin,-0.0075 ± 0.059,-0.0355 ± 0.079,-0.042 ± 0.065,-0.0505 ± 0.071,-0.002 ± 0.0085,-0.009 ± 0.018,-0.0345 ± 0.013
3C:CD142/Tissue Factor,0.034 ± 0.023,0.024 ± 0.042,0.0425 ± 0.025,0.0615 ± 0.00071,-0.128 ± 0.0057,-0.108 ± 0.031,-0.106 ± 0.012
BE3C:Keratin 8/18,0.0095 ± 0.0078,0.016 ± 0.0042,-0.0035 ± 0.0021,0.005 ± 0.0014,-0.0025 ± 0.012,-0.0135 ± 0.0078,-0.0055 ± 0.023
BE3C:MMP-1,-0.014 ± 0.035,0.0385 ± 0.05,0.0445 ± 0.043,0.0615 ± 0.028,0.0895 ± 0.03,0.0995 ± 0.025,0.001 ± 0.054
BE3C:MMP-9,-0.0105 ± 0.0035,0.0005 ± 0.023,-0.0065 ± 0.0035,-0.0235 ± 0.00071,-0.094 ± 0.0014,-0.11 ± 0.0057,-0.102 ± 0.0064
BE3C:PAI-I,0.006 ± 0.017,0.0335 ± 0.0035,-0.004 ± 0.042,-0.0285 ± 0.054,-0.157 ± 0.013,-0.162 ± 0.029,-0.138 ± 0.025
BE3C:SRB,0.0085 ± 0.019,-0.0035 ± 0.0021,-0.0055 ± 0.0078,0.0035 ± 0.0021,-0.0085 ± 0.00071,-0.014 ± 0.0085,0.0005 ± 0.029
BE3C:tPA,0.096 ± 0.011,0.115 ± 0.0021,0.0955 ± 0.032,0.03 ± 0.0071,0.186 ± 0.0057,0.192 ± 0.0099,0.176 ± 0.005
BE3C:uPA,-0.0005 ± 0.00071,0.008 ± 0.0099,-0.01 ± 0.02,-0.0085 ± 0.046,0.008 ± 0.0085,0.0065 ± 0.0064,0.003 ± 0.0014
CASM3C:CCL2/MCP-1,-0.0135 ± 0.0021,-0.043 ± 0.033,-0.04 ± 0.033,0.0315 ± 0.033,0.0095 ± 0.022,0.0295 ± 0.012,0.0645 ± 0.039
CASM3C:CD87/uPAR,0.0185 ± 0.011,0.028 ± 0.0014,-0.01 ± 0.013,0.0015 ± 0.019,-0.0035 ± 0.0064,-0.0255 ± 0.022,-0.0495 ± 0.013
CASM3C:CD106/VCAM-1,-0.017 ± 0.05,-0.0515 ± 0.015,-0.167 ± 0.083,-0.22 ± 0.054,-0.088 ± 0.044,-0.14 ± 0.061,-0.0895 ± 0.06
CASM3C:CD141/Thrombomodulin,0.0215 ± 0.11,-0.0185 ± 0.084,0.03 ± 0.062,0.193 ± 0.015,0.0085 ± 0.019,-0.028 ± 0.057,-0.002 ± 0.044
CASM3C:CD142/Tissue Factor,-0.004 ± 0.064,0.002 ± 0.024,-0.0025 ± 0.018,-0.012 ± 0.034,-0.025 ± 0.037,-0.0115 ± 0.005,0.019 ± 0.011
CASM3C:CXCL8/IL-8,0.002 ± 0.037,-0.003 ± 0.025,-0.014 ± 0.037,-0.0155 ± 0.0021,-0.003 ± 0.017,0.012 ± 0.025,0.035 ± 0.021
CASM3C:CXCL9/MIG,0.013 ± 0.044,-0.006 ± 0.017,-0.054 ± 0.018,-0.0405 ± 0.054,-0.0675 ± 0.026,-0.086 ± 0.0085,-0.05 ± 0.045

Test System,level (log10) ([1]; 1500 nM),level (log10) ([1]; 4400 nM),level (log10) ([1]; 13000 nM),level (log10) ([1]; 40000 nM),level (log10) ([2]; 6700 nM),level (log10) ([2]; 20000 nM),level (log10) ([2]; 60000 nM)
CASM3C:HLA-DR,0.0015 ± 0.0092,-0.0285 ± 0.035,-0.0385 ± 0.013,-0.085 ± 0.062,-0.0525 ± 0.039,-0.0875 ± 0.011,-0.0315 ± 0.079
CASM3C:IL-6,0.005 ± 0.062,-0.047 ± 0.0028,-0.059 ± 0.028,-0.0815 ± 0.08,-0.0605 ± 0.036,-0.066 ± 0.02,-0.0025 ± 0.035
CASM3C:LDLR,-0.001 ± 0.013,0.013 ± 0.02,0.0105 ± 0.025,-0.021 ± 0.0028,0.002 ± 0.013,-0.0385 ± 0.059,0.0025 ± 0.0092
CASM3C:M-CSF,0.0075 ± 0.054,0.0255 ± 0.005,0.0565 ± 0.039,0.095 ± 0.0085,0 ± 0.016,0.0105 ± 0.077,0.0575 ± 0.042
CASM3C:PAI-I,0.005 ± 0.0085,0 ± 0.011,0.0135 ± 0.013,0.01 ± 0.0057,0.011 ± 0.0042,0.0075 ± 0.012,0.0085 ± 0.012
CASM3C:Proliferation,0.02 ± 0.016,-0.0055 ± 0.036,0.0085 ± 0.026,-0.013 ± 0.0014,0.015 ± 0.031,-0.006 ± 0.035,-0.0605 ± 0.094
CASM3C:SRB,0.0075 ± 0.016,0.005 ± 0.0042,-0.002 ± 0.0014,-0.0065 ± 0.00071,0.01 ± 0.0014,-0.0015 ± 0.0021,0.002 ± 0.0028
CASM3C:Serum Amyloid A,0.0495 ± 0.086,0.074 ± 0.052,0.181 ± 0.075,0.157 ± 0.11,0.0135 ± 0.0078,0.0445 ± 0.0078,0.073 ± 0.041
HDF3CGF:CCL2/MCP-1,0.0155 ± 0.043,-0.039 ± 0.082,-0.018 ± 0.018,-0.0145 ± 0.015,0.034 ± 0.0085,0.0305 ± 0.0035,0.029 ± 0.014
HDF3CGF:CD54/ICAM-1,-0.016 ± 0.0071,-0.0075 ± 0.015,-0.0135 ± 0.064,-0.0275 ± 0.12,-0.002 ± 0.0028,-0.0075 ± 0.019,-0.0845 ± 0.0035
HDF3CGF:CD106/VCAM-1,-0.0785 ± 0.0021,-0.207 ± 0.14,-0.152 ± 0.026,-0.291 ± 0.04,-0.164 ± 0.017,-0.176 ± 0.029,-0.154 ± 0.0021
HDF3CGF:CXCL8/IL-8,0.007,0.004 ± 0.0014,0.012 ± 0.0014,0.0165 ± 0.015,-0.0145 ± 0.0035,-0.0195 ± 0.00071,-0.0015 ± 0.0035
HDF3CGF:CXCL9/MIG,-0.04 ± 0.03,-0.136 ± 0.12,-0.119 ± 0.043,-0.138 ± 0.073,-0.0065 ± 0.03,0.0105 ± 0.011,-0.0205 ± 0.011
HDF3CGF:CXCL10/IP-10,-0.0955 ± 0.063,-0.234 ± 0.2,-0.236 ± 0.098,-0.235 ± 0.13,-0.102 ± 0.064,-0.099 ± 0.071,-0.0875 ± 0.022
HDF3CGF:CXCL11/I-TAC,-0.072 ± 0.014,-0.074 ± 0.055,-0.0805 ± 0.077,-0.18 ± 0.034,-0.0385 ± 0.015,-0.069 ± 0.0071,-0.0495 ± 0.011
HDF3CGF:Collagen I,0.0245 ± 0.1,-0.017 ± 0.0071,-0.0245 ± 0.044,0.0105 ± 0.013,-0.0245 ± 0.012,-0.041 ± 0.038,0.0085 ± 0.066
HDF3CGF:Collagen III,-0.057 ± 0.083,-0.27 ± 0.037,-0.261 ± 0.034,-0.224 ± 0.078,-0.102 ± 0.0035,-0.143 ± 0.011,-0.092 ± 0.037
HDF3CGF:EGFR,0.0025 ± 0.077,-0.052 ± 0.025,-0.0595 ± 0.03,-0.0175 ± 0.046,0.016 ± 0.0057,-0.014 ± 0.023,0.0055 ± 0.0064
HDF3CGF:M-CSF,0.016,0.0145 ± 0.049,-0.029 ± 0.078,-0.0295 ± 0.13,0.0055 ± 0.018,0.006 ± 0.025,-0.001 ± 0.027
